Patent US20230099441A1, “HETEROCYCLIC COMPOUND, APPLICATION THEREOF, AND COMPOSITION CONTAINING SAME” (GenEros Biopharma Ltd., priority 2019, published 2023)

What was measured:
[1] = tested on: STAT5 Y694 phosphorylation; assay: Protein electrophoresis and blotting of STAT5 Y694 phosphorylation in Jurkat cells stimulated with human interferon beta; type: cell-based; details: for Inhibiting Ratio (0% for vehicle control): 1 hour pretreatment, 20 ng/ml human interferon beta 30 minutes, pSTAT5/GAPDH
Outline: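 Serum-free Jurkat cells pretreated with compound 1 h, then stimulated with 20 ng/ml human interferon beta for 30 min at 37° C. pSTAT5 measured by western blot with chemiluminescence, normalized to GAPDH and expressed as percent of DMSO control.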

[2] = tested on: mouse collagen-induced arthritis model; assay: Therapeutic efficacy in a mouse collagen-induced arthritis model (clinical score); type: in vivo; details: for clinical score of arthritis, Mean (the larger the value, the more severe the disease): mean of group, total score 0-12, oral, Methotrexate 0.25 mg/kg once a week, Tofacitinib 5 mg/kg once a day, X8 1 mg/kg once a day
Source text: Example of Effect 2: Evaluation of the Therapeutic Efficacy of X8 Compound in a Mouse Collagen-Induced Arthritis Model
(§1) Sixty male DBA/1J mice (9-10 weeks old, H-2q haplotype) were acclimatized in a standard animal room for one week and then randomly divided into 5 groups. Except for the healthy control group, the rest were inoculated with collagen antigen injection, and then received oral treatment with different compounds. The brief procedure was to mix bovine type II collagen (purchased from Chondrex, 20021) with an equal volume of Freund's complete adjuvant (purchased from Sigma, F5881), the concentration was 4 mg/ml, and it was treated with a homogenizer at a speed of 20,000 revolutions/min for 5-10 minutes. A needle was inserted between the left side of the dorsal caudal artery and the lateral vein of the mouse, and 50 microliters of modeling agent was injected subcutaneously. 21 days after the first injection, another injection was injected between the right side of the dorsal tail artery and the lateral vein of the mouse. After the first injection, oral administration was started. The drug was formulated with […] PEG300, and it was prepared for immediate use. […] The total score was between 0-12 points, and the swelling of the foot after vaccination was not calculated.

[3] = Body weight of animals in the mouse collagen-induced arthritis model; type: in vivo; details: oral, X8 1 mg/kg once a day; for body weight of animals, Mean/g: mean of group, Methotrexate 0.25 mg/kg once a week, Tofacitinib 5 mg/kg once a day
Source text: as §1

O=C(Cc1ccc(C(F)(F)F)cc1)N1CCC(n2c(=O)[nH]c3ccccc32)CC1 [Example X8, 1-(1-(2-(4-(trifluoromethyl)phenyl)acetyl)piperidin-4-yl)-1H-benzo[d]imidazole-2(3H)-one]
Inhibiting Ratio (0% for vehicle control) ([1]; 1 μM): 6.9% | Inhibiting Ratio (0% for vehicle control) ([1]; 10 μM): 31.4% | Inhibiting Ratio (0% for vehicle control) ([1]; 100 μM): 95.6% | Example of Effect 1: Inhibiting Ability (Protein Electrophoresis and Blotting) ([1]; observed pSTAT5 bands at 10 μM and 100 μM): + | therapeutic effect on severity of the disease (in words) ([2]; X8 1 mg/kg once a day oral, compared with tofacitinib 5 mg/kg once a day): comparable effects to the tofacitinib treatment group, which significantly reduced the severity of the disease | clinical score of arthritis, Mean (the larger the value, the more severe the disease) ([2]; day 0): 0.00 | clinical score of arthritis, Mean (the larger the value, the more severe the disease) ([2]; day 21): 0.00 | clinical score of arthritis, Mean (the larger the value, the more severe the disease) ([2]; day 25): 0.00 | clinical score of arthritis, Mean (the larger the value, the more severe the disease) ([2]; day 28): 0.98 | clinical score of arthritis, Mean (the larger the value, the more severe the disease) ([2]; day 31): 1.66 | clinical score of arthritis, Mean (the larger the value, the more severe the disease) ([2]; day 33): 2.39 | clinical score of arthritis, Mean (the larger the value, the more severe the disease) ([2]; day 35): 2.64 | clinical score of arthritis, Mean (the larger the value, the more severe the disease) ([2]; day 38): 2.87 | clinical score of arthritis, Mean (the larger the value, the more severe the disease) ([2]; day 40): 2.87 | clinical score of arthritis, Mean (the larger the value, the more severe the disease) ([2]; day 42): 3.17 | clinical score of arthritis, Mean (the larger the value, the more severe the disease) ([2]; day 45): 3.39 | body weight of animals, Mean/g ([3]; day 0): 21.50 g | body weight of animals, Mean/g ([3]; day 4): 21.52 g | body weight of animals, Mean/g ([3]; day 7): 21.93 g | body weight of animals, Mean/g ([3]; day 11): 21.90 g | body weight of animals, Mean/g ([3]; day 14): 21.92 g | body weight of animals, Mean/g ([3]; day 18): 22.23 g | body weight of animals, Mean/g ([3]; day 20): 22.50 g | body weight of animals, Mean/g ([3]; day 25): 22.07 g | body weight of animals, Mean/g ([3]; day 28): 21.82 g | body weight of animals, Mean/g ([3]; day 31): 21.71 g | body weight of animals, Mean/g ([3]; day 33): 21.82 g | body weight of animals, Mean/g ([3]; day 35): 21.55 g | body weight of animals, Mean/g ([3]; day 38): 21.71 g | body weight of animals, Mean/g ([3]; day 40): 21.64 g | body weight of animals, Mean/g ([3]; day 42): 21.61 g | body weight of animals, Mean/g ([3]; day 45): 21.98 g | effect on body weight of animals (in words) ([3]; whole experiment, days 0-45, methotrexate 0.25 mg/kg once a week, tofacitinib 5 mg/kg once a day): no significant effect on body weight of animals, and no drastic changes were seen
